# Where two headings read alike, the source gives them in different places.
# Columns and labels:
# [1] = tested on: sarcoma 180; assay: Anti-cancer effect on subcutaneously transplanted sarcoma 180 in mice; assay type: in vivo, mouse
# Description: (§1) The anti-cancer compositions of this invention are tested in mice by the following methods to determine acute toxicity, anti-cancer effect and therapeutic index
# Tissues of sarcoma 180, 2×10^6, are subcutaneously transplanted in the back of male mice of ICR strain (6 mice in each group). A 5-fluorouracil (a) and uracil derivative (b) in the proportions listed in Tables 1-16 are suspended in a 5% solution of gum arabic to prepare a suspension. Twenty-four hours after the transplantation and during the following seven consecutive days the suspension is orally given to the animal once every day. On the 10th day after the transplantation, the tumor is removed from the body and weighed to calculate the average weight (T) of the tumors in the group to which the composition has been given and the corresponding weight (C) in the control group to determine the ratio T/C.
# [2] = tested on: male mice of ICR strain; assay: in vivo; conditions: 30240 min
# Description: as §1
# (§2) Male mice of ICR strain weighing 22±1 g are used, 5 mice in each group. A 5-fluorouracil (a) and uracil derivative (b) in the proportions listed in Tables 1-16 are suspended in a 5% solution of gum arabic to prepare a suspension, which is forcibly orally administered to each mouse through a tube at a dose of 1 ml/100 g. Over the following period of three weeks the mice are checked every day for poisoning, body weight and mortality. The LD50 is determined according to the up-and-down method 3 weeks after the administration.
# [3] = tested on: sarcoma 180; assay type: in vivo
# Description: as §1, §2
# Tissues of sarcoma 180, 2×10^6, are subcutaneously transplanted in the back of male mice of ICR strain (6 mice in each group). A 5-fluorouracil (a) and uracil derivative (b) in the proportions listed in Tables 1-16 are suspended in a 5% solution of gum arabic to prepare a suspension. Twenty-four hours after the transplantation and during the following seven consecutive days the suspension is orally given to the animal once every day.
# The LD50 and ED50 values obtained above are used to determine the therapeutic index (LD50 /ED50).
# [4] = (b) = 1(2-Tetrahydrofuryl)uracil, (b)/(a) mol ratio 1
# [5] = (b) = 1(2-Tetrahydrofuryl)uracil, (b)/(a) mol ratio 2
# [6] = (b) = 1(2-Tetrahydrofuryl)uracil, (b)/(a) mol ratio 5
# [7] = (b) = 1Acetyluracil, (b)/(a) mol ratio 1
# [8] = (b) = 1Acetyluracil, (b)/(a) mol ratio 2
# [9] = (b) = 1Acetyluracil, (b)/(a) mol ratio 5
# [10] = (b) = 1Cyclohexylcarbamoyluracil, (b)/(a) mol ratio 0.5
# [11] = (b) = 1Cyclohexylcarbamoyluracil, (b)/(a) mol ratio 2
# [12] = (b) = 1Cyclohexylcarbamoyluracil, (b)/(a) mol ratio 5
# [13] = (b) = 1n-Hexylcarbamoyluracil, (b)/(a) mol ratio 1
# [14] = (b) = 1n-Hexylcarbamoyluracil, (b)/(a) mol ratio 2
# [15] = (b) = 1n-Hexylcarbamoyluracil, (b)/(a) mol ratio 10
# [16] = (b) = 2'-Deoxycytidine, (b)/(a) mol ratio 1
# [17] = (b) = 2'-Deoxycytidine, (b)/(a) mol ratio 2
# [18] = (b) = 2'-Deoxycytidine, (b)/(a) mol ratio 10
# [19] = (b) = 2'-Deoxyuridine, (b)/(a) mol ratio 1
# [20] = (b) = 2'-Deoxyuridine, (b)/(a) mol ratio 2
# [21] = (b) = 2'-Deoxyuridine, (b)/(a) mol ratio 20
# [22] = (b) = 3Benzoyluracil, (b)/(a) mol ratio 1
# [23] = (b) = 3Benzoyluracil, (b)/(a) mol ratio 2
# [24] = (b) = 3Benzoyluracil, (b)/(a) mol ratio 10
# [25] = (b) = 5Bromo-2'-deoxyuridine, (b)/(a) mol ratio 0.5
# [26] = (b) = 5Bromo-2'-deoxyuridine, (b)/(a) mol ratio 2
# [27] = (b) = 5Bromo-2'-deoxyuridine, (b)/(a) mol ratio 10
# [28] = (b) = 5Bromouracil, (b)/(a) mol ratio 0.5
# [29] = (b) = 5Bromouracil, (b)/(a) mol ratio 2
# [30] = (b) = 5Bromouracil, (b)/(a) mol ratio 10
# [31] = (b) = 5Iodouracil, (b)/(a) mol ratio 1
# [32] = (b) = 5Iodouracil, (b)/(a) mol ratio 2
# [33] = (b) = 5Iodouracil, (b)/(a) mol ratio 5
# [34] = (b) = Cytidine, (b)/(a) mol ratio 1
# [35] = (b) = Cytidine, (b)/(a) mol ratio 2
# [36] = (b) = Cytidine, (b)/(a) mol ratio 10
# [37] = (b) = Cytosine, (b)/(a) mol ratio 1
# [38] = (b) = Cytosine, (b)/(a) mol ratio 2
# [39] = (b) = Cytosine, (b)/(a) mol ratio 10
# [40] = (b) = Orotic acid, (b)/(a) mol ratio 1
# [41] = (b) = Orotic acid, (b)/(a) mol ratio 2
# [42] = (b) = Orotic acid, (b)/(a) mol ratio 20
# [43] = (b) = Thymidine, (b)/(a) mol ratio 0.5
# [44] = (b) = Thymidine, (b)/(a) mol ratio 2
# [45] = (b) = Thymidine, (b)/(a) mol ratio 10
# [46] = (b) = Thymine, (b)/(a) mol ratio 0.5
# [47] = (b) = Thymine, (b)/(a) mol ratio 2
# [48] = (b) = Thymine, (b)/(a) mol ratio 10
# [49] = (b) = Uridine, (b)/(a) mol ratio 1
# [50] = (b) = Uridine, (b)/(a) mol ratio 2
# [51] = (b) = Uridine, (b)/(a) mol ratio 20
structure (smiles),measurement,setting,value
"O=c1[nH]cc(F)c(=O)n1C1CCCO1 (stereo not drawn) [Compound 6, 3-(2-Tetrahydrofuryl)-5-fluorouracil]",ED50,[1]; [4],51 mg/kg
same,ED50,[1]; [5],29 mg/kg
same,ED50,[1]; [6],18 mg/kg
same,ED50,[1]; [7],32 mg/kg
same,ED50,[1]; [8],26 mg/kg
same,ED50,[1]; [9],16 mg/kg
same,ED50,[1]; [10],55 mg/kg
same,ED50,[1]; [11],46 mg/kg
same,ED50,[1]; [12],33 mg/kg
same,ED50,[1]; [13],59 mg/kg
same,ED50,[1]; [14],41 mg/kg
same,ED50,[1]; [15],28 mg/kg
same,ED50,[1]; [16],59 mg/kg
same,ED50,[1]; [17],47 mg/kg
same,ED50,[1]; [18],34 mg/kg
same,ED50,[1]; [19],53 mg/kg
same,ED50,[1]; [20],42 mg/kg
same,ED50,[1]; [21],26 mg/kg
same,ED50,[1]; [22],42 mg/kg
same,ED50,[1]; [23],32 mg/kg
same,ED50,[1]; [24],25 mg/kg
same,ED50,[1]; [25],49 mg/kg
same,ED50,[1]; [26],30 mg/kg
same,ED50,[1]; [27],22 mg/kg
same,ED50,[1]; [28],39 mg/kg
same,ED50,[1]; [29],26 mg/kg
same,ED50,[1]; [30],21 mg/kg
same,ED50,[1]; [31],26 mg/kg
same,ED50,[1]; [32],17 mg/kg
same,ED50,[1]; [33],11 mg/kg
same,ED50,[1]; [34],58 mg/kg
same,ED50,[1]; [35],39 mg/kg
same,ED50,[1]; [36],34 mg/kg
same,ED50,[1]; [37],56 mg/kg
same,ED50,[1]; [38],41 mg/kg
same,ED50,[1]; [39],24 mg/kg
same,ED50,[1]; [40],69 mg/kg
same,ED50,[1]; [41],61 mg/kg
same,ED50,[1]; [42],46 mg/kg
same,ED50,[1]; [43],67 mg/kg
same,ED50,[1]; [44],63 mg/kg
same,ED50,[1]; [45],60 mg/kg
same,ED50,[1]; [46],48 mg/kg
same,ED50,[1]; [47],27 mg/kg
same,ED50,[1]; [48],14 mg/kg
same,ED50,[1]; [49],43 mg/kg
same,ED50,[1]; [50],31 mg/kg
same,ED50,[1]; [51],29 mg/kg
same,ED50,"[1]; (b)/(a) mol ratio 0 (alone), oral, 50% cancer inhibition (T/C)",73 mg/kg
same,LD50,[2]; [11],694 mg/kg
same,LD50,[2]; [18],680 mg/kg
same,LD50,[2]; [32],380 mg/kg
same,LD50,[2]; [40],1020 mg/kg
same,Therapeutic Index (LD50/ED50),[3]; [4],17.1
same,Therapeutic Index (LD50/ED50),[3]; [5],22.4
same,Therapeutic Index (LD50/ED50),[3]; [6],29.7
same,Therapeutic Index (LD50/ED50),[3]; [7],21.9
same,Therapeutic Index (LD50/ED50),[3]; [8],18.0
same,Therapeutic Index (LD50/ED50),[3]; [9],15.4
same,Therapeutic Index (LD50/ED50),[3]; [10],15.1
same,Therapeutic Index (LD50/ED50),[3]; [11],15.1
same,Therapeutic Index (LD50/ED50),[3]; [12],17.5
same,Therapeutic Index (LD50/ED50),[3]; [13],15.7
same,Therapeutic Index (LD50/ED50),[3]; [14],20.6
same,Therapeutic Index (LD50/ED50),[3]; [15],16.8
same,Therapeutic Index (LD50/ED50),[3]; [16],15.7
same,Therapeutic Index (LD50/ED50),[3]; [17],17.9
same,Therapeutic Index (LD50/ED50),[3]; [18],20.0
same,Therapeutic Index (LD50/ED50),[3]; [19],15.9
same,Therapeutic Index (LD50/ED50),[3]; [20],18.8
same,Therapeutic Index (LD50/ED50),[3]; [21],20.2
same,Therapeutic Index (LD50/ED50),[3]; [22],18.3
same,Therapeutic Index (LD50/ED50),[3]; [23],20.7
same,Therapeutic Index (LD50/ED50),[3]; [24],17.9
same,Therapeutic Index (LD50/ED50),[3]; [25],13.1
same,Therapeutic Index (LD50/ED50),[3]; [26],15.9
same,Therapeutic Index (LD50/ED50),[3]; [27],14.0
same,Therapeutic Index (LD50/ED50),[3]; [28],19.1
same,Therapeutic Index (LD50/ED50),[3]; [29],22.1
same,Therapeutic Index (LD50/ED50),[3]; [30],19.6
same,Therapeutic Index (LD50/ED50),[3]; [31],18.0
same,Therapeutic Index (LD50/ED50),[3]; [32],22.4
same,Therapeutic Index (LD50/ED50),[3]; [33],17.6
same,Therapeutic Index (LD50/ED50),[3]; [34],17.6
same,Therapeutic Index (LD50/ED50),[3]; [35],23.8
same,Therapeutic Index (LD50/ED50),[3]; [36],22.7
same,Therapeutic Index (LD50/ED50),[3]; [37],18.2
same,Therapeutic Index (LD50/ED50),[3]; [38],24.9
same,Therapeutic Index (LD50/ED50),[3]; [39],26.6
same,Therapeutic Index (LD50/ED50),[3]; [40],14.8
same,Therapeutic Index (LD50/ED50),[3]; [41],15.9
same,Therapeutic Index (LD50/ED50),[3]; [42],17.5
same,Therapeutic Index (LD50/ED50),[3]; [43],14.4
same,Therapeutic Index (LD50/ED50),[3]; [44],14.1
same,Therapeutic Index (LD50/ED50),[3]; [45],10.7
same,Therapeutic Index (LD50/ED50),[3]; [46],-17.3
same,Therapeutic Index (LD50/ED50),[3]; [47],19.9
same,Therapeutic Index (LD50/ED50),[3]; [48],23.1
same,Therapeutic Index (LD50/ED50),[3]; [49],22.0
same,Therapeutic Index (LD50/ED50),[3]; [50],26.3
same,Therapeutic Index (LD50/ED50),[3]; [51],20.6
same,Therapeutic Index (LD50/ED50),[3]; (b)/(a) mol ratio 0 (alone),13.1

# From patent US4650801A, “Anti-cancer compositions for delivering 5-fluorouracil” (Taiho Pharmaceutical Company, Ltd., priority 1978, dated 1987)
